Data published in patent US20020193377A1, “Quinazolines as MMP-13 inhibitors” (priority 2001, published 2002).

Tested on: MMP-1, MMP-2, MMP-3, MMP-9 and MMP-13
Assay: not given
Conditions: prior art, non-selective inhibitors; cited from earlier work

Row | Structure (SMILES) | inhibition of several MMPs (in words)
1 | CC1(C)SCCN(S(=O)(=O)c2ccc(Oc3ccncc3)cc2)[C@H]1C(=O)NO [AG-3340] | inhibit both MMP-1, MMP-2, MMP-3, MMP-9 and MMP-13
2 | COc1ccc(S(=O)(=O)N(Cc2cccnc2)[C@@H](C(=O)NO)C(C)C)cc1 [CGS-27.023A] | inhibit both MMP-1, MMP-2, MMP-3, MMP-9 and MMP-13

Target: T1, human collagenase-3 catalytic domain enzyme (MMP13) (Homo sapiens, UniProt P45452)
T1 construct: human collagenase-3 catalytic domain enzyme
Assay: MMP13CD Thiopeptolide Assay
Type: biochemical
Conditions: not given
Experimental: MMP13CD Thiopeptolide Assay: Proteolysis of the thiopeptolide substrate Ac-Pro-Leu-Gly-thioester-Leu-Leu-Gly-OEt is used as the primary screen to determine IC50 values for MMP13 inhibitors. A 100 μl reaction contains 50 mM HEPES, 10 mM CaCl2, pH 7.0 (RT), 1 mM 5,5′-dithiobis(2-nitrobenzoic acid) (DTNB), 100 μM substrate, inhibitor in 2.0% DMSO and 2.5 nM human collagenase-3 catalytic domain enzyme. Inhibitors are screened from 100 μM to 0.5 nM. […] Percentage of control velocity in inhibited treatments is plotted against inhibitor concentration to calculate IC50 values.

Row | Structure (SMILES) | IC50
3 | COc1ccc(CNC(=O)c2ccc3c(c2)c(=O)n(Cc2ccc(C(=O)N(C)C)cc2)c(=O)n3C)cc1 [Example 50, 3-(4-Dimethylcarbamoyl-benzyl)-1-methyl-2,4-dioxo-1,2,3,4-tetrahydro quinazoline-6-carboxylic acid 4-methoxy-benzylamide] | 96 nM
4 | CNC(=O)c1ccc(Cn2c(=O)c3cc(C(=O)NCc4ccc(OC)cc4)ccc3n(C)c2=O)cc1 [Example 51, 1-Methyl-3-(4-methylcarbamoyl-benzyl)-2,4-dioxo-1,2,3,4-tetrahydro-quinazoline-6-carboxylic acid 4-methoxy-benzylamide] | 62 nM

Other lines, results leading:

Row | IC50 | Structure (SMILES)
5 | 9 nM | O=C(NCc1ccc2c(c1)OCO2)c1ccc2[nH]c(=O)n(Cc3ccc4c(c3)OCO4)c(=O)c2c1 [Example 28, 3-(Benzo[1,3]dioxol-5-ylmethyl)-2,4-dioxo-1,2,3,4-tetrahydroquinazoline-6-carboxylic acid (benzo[1,3]dioxol-5-ylmethyl)amide]
6 | 14 nM | C=CCn1c(=O)c2cc(C(=O)NCc3ccc(OC)cc3)ccc2n(C)c1=O [Example 52, 3-Allyl-1-methyl-2,4-dioxo-1,2,3,4-tethydro-quinazoline-6-carboxylic acid 4-methoxy-benzylamiide]

Tested on: not given
Assay: not given
Conditions: not given

Row | Structure (SMILES) | melting point
7 | COc1ccc(CNC(=O)c2ccc3c(c2)c(=O)n(Cc2ccc(-c4noc(=O)[nH]4)cc2)c(=O)n3C)cc1 | 305 °C
8 | Cn1c(=O)n(Cc2ccc(F)cc2)c(=O)c2cc(C(=O)NCc3cccnc3)ccc21 | 166 to 168 °C
9 | COc1cc(CNC(=O)c2ccc3c(c2)c(=O)n(Cc2ccc(F)cc2)c(=O)n3C)ccn1 | 174 to 175 °C
10 | COc1ccc(CNC(=O)c2ccc3c(c2)c(=O)n(Cc2ccc(C4(C(=O)O)CC4)cc2)c(=O)n3C)cc1 | 179 to 181 °C
11 | Cn1c(=O)n(Cc2ccccc2)c(=O)c2cc([S+]([O-])Cc3ccccc3)ccc21 (centres unmarked) | 182 to 183 °C

Second part, the molecule after the results:

Row | melting point | Structure (SMILES)
12 | 147 °C | Cn1c(=O)n(Cc2ccccc2)c(=O)c2cc(C(=O)OC/C=C/c3ccncc3)ccc21
13 | 184 °C | Cn1c(=O)n(Cc2ccccc2)c(=O)c2cc(C(=O)OC/C=C/c3cccnc3)ccc21
14 | 130 °C | COc1ccc(CNC(=O)c2ccc3c(c2)c(=O)n(Cc2ccc(C(=O)OCCN(C)C)c(OC)c2)c(=O)n3C)cc1
15 | 173 to 175 °C | Cn1c(=O)n(Cc2ccc(Cl)cc2)c(=O)c2cc(C(=O)NCc3cccnc3)ccc21
16 | 178 to 180 °C | COc1cccc(CNC(=O)c2ccc3c(c2)c(=O)n(Cc2ccc(Cl)cc2)c(=O)n3C)c1
17 | 148 to 149 °C | COc1ccc(CNC(=O)c2ccc3c(c2)c(=O)n(Cc2ccc(C4(C(=O)OC(C)(C)C)CC4)cc2)c(=O)n3C)cc1
18 | 117 to 118 °C | Cn1c(=O)n(Cc2ccccc2)c(=O)c2cc(SCc3ccccc3)ccc21
19 | 173 to 175 °C | Cn1c(=O)n(Cc2ccccc2)c(=O)c2cc(S(=O)(=O)Cc3ccccc3)ccc21
20 | 245.2 °C | O=C(NCc1ccc2c(c1)OCO2)c1ccc2[nH]c(=O)n(Cc3ccc4c(c3)OCO4)c(=O)c2c1 [Example 28, 3-(Benzo[1,3]dioxol-5-ylmethyl)-2,4-dioxo-1,2,3,4-tetrahydroquinazoline-6-carboxylic acid (benzo[1,3]dioxol-5-ylmethyl)amide]
